Assay results: US8415342B2, “Besifloxacin ophthalmic composition for the treatment or control of infection” (Bausch & Lomb Incorporated, priority 2008, dated 2013)
“And” between values parts separate entries of the source, which are not always exact repeats. Equal entries are not always repeated.

Columns and labels:
[1] = target: T1, S. pneumoniae topoisomerase IV (Streptococcus pneumoniae serotype 4, UniProt P72525+Q59961); assay type: biochemical; conditions: S. pneumoniae enzymes; concentration that produces 25% linearization of the DNA
T1 sequence (P72525 1-823): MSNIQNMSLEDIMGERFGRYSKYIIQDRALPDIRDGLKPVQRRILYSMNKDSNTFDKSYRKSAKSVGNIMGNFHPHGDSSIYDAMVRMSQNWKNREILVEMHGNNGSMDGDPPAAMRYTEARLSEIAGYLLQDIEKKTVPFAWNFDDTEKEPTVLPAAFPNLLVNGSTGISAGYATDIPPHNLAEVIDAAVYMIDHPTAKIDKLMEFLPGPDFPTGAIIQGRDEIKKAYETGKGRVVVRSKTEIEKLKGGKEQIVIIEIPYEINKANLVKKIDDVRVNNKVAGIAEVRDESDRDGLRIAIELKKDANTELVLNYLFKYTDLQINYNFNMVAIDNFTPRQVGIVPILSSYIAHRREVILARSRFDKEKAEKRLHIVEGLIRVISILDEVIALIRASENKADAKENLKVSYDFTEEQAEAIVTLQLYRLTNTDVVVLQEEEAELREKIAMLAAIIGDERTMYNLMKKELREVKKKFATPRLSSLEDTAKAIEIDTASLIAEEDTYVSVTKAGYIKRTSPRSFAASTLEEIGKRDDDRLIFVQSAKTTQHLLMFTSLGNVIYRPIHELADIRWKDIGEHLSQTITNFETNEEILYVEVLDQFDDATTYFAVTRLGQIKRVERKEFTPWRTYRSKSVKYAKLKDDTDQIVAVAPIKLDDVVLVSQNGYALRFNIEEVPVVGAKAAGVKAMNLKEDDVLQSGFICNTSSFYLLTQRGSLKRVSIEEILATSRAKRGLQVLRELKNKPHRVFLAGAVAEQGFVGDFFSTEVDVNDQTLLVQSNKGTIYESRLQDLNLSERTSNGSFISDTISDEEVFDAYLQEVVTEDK
T1 sequence (Q59961 1-647): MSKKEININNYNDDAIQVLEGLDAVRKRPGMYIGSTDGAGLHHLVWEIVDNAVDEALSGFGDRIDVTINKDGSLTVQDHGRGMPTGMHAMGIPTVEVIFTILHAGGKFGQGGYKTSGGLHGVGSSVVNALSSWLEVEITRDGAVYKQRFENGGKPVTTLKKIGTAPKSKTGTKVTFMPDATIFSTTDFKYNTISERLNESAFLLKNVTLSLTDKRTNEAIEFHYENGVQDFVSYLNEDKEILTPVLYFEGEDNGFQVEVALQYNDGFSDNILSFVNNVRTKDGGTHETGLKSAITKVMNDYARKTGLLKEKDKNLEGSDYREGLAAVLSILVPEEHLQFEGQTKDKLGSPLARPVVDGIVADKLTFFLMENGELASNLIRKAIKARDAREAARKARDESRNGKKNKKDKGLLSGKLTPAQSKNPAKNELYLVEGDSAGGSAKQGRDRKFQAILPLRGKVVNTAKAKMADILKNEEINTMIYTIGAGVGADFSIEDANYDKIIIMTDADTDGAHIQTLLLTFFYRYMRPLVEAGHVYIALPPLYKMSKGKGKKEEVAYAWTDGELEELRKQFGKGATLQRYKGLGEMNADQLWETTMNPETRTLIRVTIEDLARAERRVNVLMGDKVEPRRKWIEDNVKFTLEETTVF

E. coli DNA gyrase = E. coli DNA gyrase (Escherichia coli, UniProt P0AES4+P0AES6); assay: Catalytic inhibition of purified DNA gyrase; assay type: biochemical
Chain of E. coli DNA gyrase (P0AES4 whole entry, one chain of several): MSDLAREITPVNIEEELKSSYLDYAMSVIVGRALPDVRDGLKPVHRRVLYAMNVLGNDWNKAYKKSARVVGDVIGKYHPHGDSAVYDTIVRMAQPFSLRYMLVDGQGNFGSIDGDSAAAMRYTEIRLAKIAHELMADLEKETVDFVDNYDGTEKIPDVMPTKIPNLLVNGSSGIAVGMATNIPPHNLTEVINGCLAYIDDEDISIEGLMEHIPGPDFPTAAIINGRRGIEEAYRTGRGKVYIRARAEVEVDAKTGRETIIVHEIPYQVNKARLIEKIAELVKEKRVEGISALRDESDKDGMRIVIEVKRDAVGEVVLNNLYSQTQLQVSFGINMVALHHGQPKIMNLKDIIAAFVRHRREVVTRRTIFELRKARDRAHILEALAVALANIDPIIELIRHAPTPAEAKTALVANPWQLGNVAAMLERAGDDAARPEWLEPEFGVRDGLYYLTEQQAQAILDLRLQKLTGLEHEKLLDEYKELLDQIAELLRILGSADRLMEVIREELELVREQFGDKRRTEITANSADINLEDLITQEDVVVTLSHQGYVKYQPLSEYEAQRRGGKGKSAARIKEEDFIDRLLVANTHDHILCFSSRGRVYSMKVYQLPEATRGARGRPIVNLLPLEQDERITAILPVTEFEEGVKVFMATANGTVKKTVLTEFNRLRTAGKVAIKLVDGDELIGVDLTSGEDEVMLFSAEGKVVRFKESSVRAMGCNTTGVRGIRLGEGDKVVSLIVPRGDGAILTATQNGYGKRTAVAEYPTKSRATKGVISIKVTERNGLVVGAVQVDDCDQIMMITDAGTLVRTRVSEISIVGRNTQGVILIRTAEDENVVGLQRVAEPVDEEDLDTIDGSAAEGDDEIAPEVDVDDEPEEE

[2] = Nonclinical ocular and systemic pharmacokinetics after topical ocular administration; assay type: in vivo; conditions: for peak plasma besifloxacin concentration, on average: topical ocular administration
Source text: Results from the nonclinical ocular pharmacokinetic (PK) studies indicate that topical ocular administration of besifloxacin ophthalmic suspension, 0.6%, is associated with rapid absorption and distribution of besifloxacin into ocular tissues. […] However, based on the extensive ocular safety data available for besifloxacin, no adverse consequences are expected.
Systemic exposure to besifloxacin following topical ocular administration was low, with peak plasma besifloxacin concentrations of 7.6 and 9.2 ng/mL, respectively, on average.

[3] = Nonclinical ocular tolerance, QID dosing for 28 days; assay type: in vivo
Source text: ERG measurements were included in the studies due to the known retinal toxicity associated with some fluoroquinolones.

[4] = system: ocular isolates (S. pneumoniae, S. epidermidis, H. influenzae, and S. aureus); assay: MBC versus MIC, all recent ocular isolates tested; assay type: cell-based
Source text: The success of in vivo antimicrobial action depends to a large extent on the host's defense mechanisms, which ultimately sequester and kill the microorganisms that have been reduced by the bacteriostatic/bactericidal action of the antibacterial agent. Thus, it is also of interest to profile the bactericidal activity of antimicrobial agents. The assessment of in vitro bactericidal activity can be accomplished in multiple ways, for example, the time-kill method or the determination of the minimum bactericidal concentration (MBC). […] Bactericidal agents are characterized by low MBC:MIC ratios.

[5] = Safety pharmacology: in vivo cardiovascular effects after systemic dosing
Source text: The in vivo cardiovascular effects, specifically, an increase in QT duration, following besifloxacin systemic dosing were only observed after doses that were at least 300 times the intended ocular daily dose. There was no change in heart rate, blood pressure, or cardiac conduction.

Structure (SMILES): N[C@@H]1CCCCN(c2c(F)cc3c(=O)c(C(=O)O)cn(C4CC4)c3c2Cl)C1 [Besifloxacin, (R)-(+)-(3-amino-2,3,4,5,6,7-hexahydro-1H-azepin-1-yl)-8-chloro-1-cyclopropyl-6-fluoro-1,4,-dihydro-4-oxo-3-quinolinecarboxylic acid]
- CC25 Topo IV [1]: 1 μM and 0.4 μg/mL
- IC50 (E. coli DNA gyrase; E. coli enzymes): 2300 nM and 2540 nM
- inhibitory concentration for gyrase lower than for topoisomerase IV (E. coli DNA gyrase; E. coli enzymes): 10 fold
- catalytic inhibition and cleavable complex stimulation relative to comparators (E. coli DNA gyrase; purified E. coli DNA gyrase and topoisomerase IV): equivalent to that of the ciprofloxacin and moxifloxacin comparators
- Cmax ([2]; non-excretory organs, topical or ocular, nonclinical, repeated (BID, TID, QID) topical ocular administration): < 25 ng/g
- half-life ([2]; ocular tissues, topical or ocular, nonclinical, topical ocular 0.6% suspension, read-out: apparent half-life of elimination from ocular tissues): > 5 h
- peak plasma besifloxacin concentration, on average ([2]; first of two groups not named ('respectively')): 7.6 ng/mL
- peak plasma besifloxacin concentration, on average ([2]; second of two groups not named ('respectively')): 9.2 ng/mL
- non-clinical ocular tolerance [3]: no adverse effects observed
- isolates with MBC within 4-fold of the MIC [4]: more than 80%
- dose at which an increase in QT duration was observed [5]: at least 300 times the intended ocular daily dose
- heart rate, blood pressure, or cardiac conduction [5]: no change
